These results are taken from ChEMBL document CHEMBL1149541, “Potent macrocyclic antagonists to the motilin receptor presenting novel unnatural amino acids” (Bioorg Med Chem Lett, 2007).

The target of experiment [1] is T1, Motilin receptor (Homo sapiens, UniProt O43193). Nature of the experiment: Displacement of [125I]motilin from human motilin receptor expressed in CHO cells. Type of experiment: cell-based. For orientation: Displacement assays read how much labelled ligand stays bound in the presence of the test substance.
In experiment [2] the target is T1, Motilin receptor. As to the kind of experiment: Antagonist activity against human motilin receptor in aequoscreen cells assessed as inhibition of motilin induced calcium release by aequorin assay. Type of experiment: functional, cell-based.

Molecules are shown by their SMILES.

T1 sequence (O43193 whole entry): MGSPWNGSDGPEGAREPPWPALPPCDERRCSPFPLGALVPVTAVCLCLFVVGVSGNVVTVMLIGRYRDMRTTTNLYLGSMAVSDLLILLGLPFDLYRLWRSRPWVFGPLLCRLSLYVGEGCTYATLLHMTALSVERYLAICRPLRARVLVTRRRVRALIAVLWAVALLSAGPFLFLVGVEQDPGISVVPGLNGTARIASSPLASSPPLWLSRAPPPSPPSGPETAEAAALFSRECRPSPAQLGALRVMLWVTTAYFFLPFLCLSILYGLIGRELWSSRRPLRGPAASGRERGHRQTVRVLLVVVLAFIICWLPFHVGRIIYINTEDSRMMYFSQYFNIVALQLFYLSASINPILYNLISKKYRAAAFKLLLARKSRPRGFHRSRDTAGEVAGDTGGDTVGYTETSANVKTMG

As to `CC(C)[C@H]1NC(=O)[C@@H](Cc2cccc(C(F)(F)F)c2)NCCOc2ccccc2CCCNC(=O)[C@H](CNc2ncccn2)NC1=O`, the Ki (commonly the equilibrium dissociation constant of an inhibitor or competing ligand from its target) at Motilin receptor [1] came out at 20 nM. For `CC(C)[C@H]1NC(=O)[C@@H](Cc2ccc(Cl)cc2)NCCOc2ccccc2CCCNC(=O)[C@H](CN=C(N)N)NC1=O`, the Ki at Motilin receptor [1] amounted to 6 nM. `CC(C)[C@H]1NC(=O)[C@@H](Cc2ccc(O)cc2)NCCOc2ccccc2CCCNC(=O)[C@H](CCN)NC1=O` yielded an inhibitory constant (Ki) on Motilin receptor [1] of 342 nM. Against the preceding compound, the Ki is about 57-fold higher. The same measure, in the same setting: then `CC(C)[C@H]1NC(=O)[C@@H](Cc2ccc(Cl)cc2)NCCOc2ccccc2CCCNC(=O)[C@H](CNC(N)=O)NC1=O`, with 543 nM; and `CC(C)NC[C@@H]1NC(=O)[C@@H](C(C)C)NC(=O)[C@@H](Cc2ccc(O)cc2)NCCOc2ccccc2CCCNC1=O`, with 376 nM; and `CC(=O)NC[C@@H]1NC(=O)[C@@H](C(C)C)NC(=O)[C@@H](Cc2ccc(O)cc2)NCCOc2ccccc2CCCNC1=O`, with 1950 nM. `CNC[C@@H]1NC(=O)[C@@H](C(C)C)NC(=O)[C@@H](Cc2ccc(Cl)cc2)NCCOc2ccccc2CCCNC1=O`: the IC50 – broadly, the concentration that inhibits the measured activity by half – on Motilin receptor [2] came to 33 nM. Further, at Motilin receptor [1], the affinity corresponds to a Ki of 31 nM. On Motilin receptor [1], `CC(C)[C@H]1NC(=O)[C@@H](Cc2ccc(Cl)cc2)NCCOc2ccccc2CCCNC(=O)[C@H](CN(C)C)NC1=O` displayed a Ki of 16 nM. This lies in the double-digit nanomolar range.

Consider `CNC[C@@H]1NC(=O)[C@@H](C(C)C)NC(=O)[C@@H](Cc2cccc(C(F)(F)F)c2)NCCOc2ccccc2CCCNC1=O`, for which the 50% inhibitory concentration (IC50) on Motilin receptor [2] was determined as 3 nM. For the same compound, at Motilin receptor [1], the Ki stood at 6 nM. With `CC(C)[C@H]1NC(=O)[C@@H](Cc2cccc(F)c2)NCCOc2ccccc2CCCNC(=O)[C@H](Cc2cscn2)NC1=O`, the affinity at Motilin receptor [1], expressed as Ki, was 116 nM.

For `CC(C)[C@H]1NC(=O)[C@@H](Cc2cccc(Cl)c2)NCCOc2ccccc2CCCNC(=O)[C@H](CCC(=N)N)NC1=O`, on Motilin receptor [1], the Ki is 27 nM. Still for that read-out and setting: to `Cc1cnnn1C[C@@H]1NC(=O)[C@@H](C(C)C)NC(=O)[C@@H](Cc2cccc(C(F)(F)F)c2)NCCOc2ccccc2CCCNC1=O` belongs 17 nM. For the compound `CC(C)[C@H]1NC(=O)[C@@H](Cc2cccc(C(F)(F)F)c2)NCCOc2ccccc2CCCNC(=O)[C@H](CN)NC1=O`, at Motilin receptor [2], the IC50 came to 8 nM. Moreover, the Ki on Motilin receptor [1] was 15 nM. As for `CC(C)[C@H]1NC(=O)[C@@H](Cc2cccc(Cl)c2)NCCOc2ccccc2CCCNC(=O)[C@H](CNC2=NCCCN2)NC1=O`, on Motilin receptor [1], the Ki worked out at 87 nM. The compound `CC(C)[C@H]1NC(=O)[C@@H](Cc2ccc(Cl)cc2)NCCOc2ccccc2CCCNC(=O)[C@H](CN)NC1=O` showed a Ki on Motilin receptor [1] of 60 nM. Take `CC(C)[C@H]1NC(=O)[C@@H](Cc2ccc(O)cc2)NCCOc2ccccc2/C=C/CNC(=O)[C@H](CCCN)NC1=O`: the Ki at Motilin receptor [1] was determined as 889 nM. On the same count and under the same terms, to `CC(C)[C@H]1NC(=O)[C@@H](Cc2cccc(Cl)c2)NCCOc2ccccc2CCCNC(=O)[C@H](CN=C(N)N)NC1=O` belongs 57 nM; to `Cc1nnnn1C[C@@H]1NC(=O)[C@@H](C(C)C)NC(=O)[C@@H](Cc2cccc(C(F)(F)F)c2)NCCOc2ccccc2CCCNC1=O`, 21 nM. For the compound `CC(C)[C@H]1NC(=O)[C@@H](Cc2cccc(Cl)c2)NCCOc2ccccc2CCCNC(=O)[C@H](Cn2cccn2)NC1=O`, the 50% inhibitory concentration (IC50) on Motilin receptor [2] came to 56 nM. This compound also came in with a Ki on Motilin receptor [1] of 18 nM. `CC(C)[C@H]1NC(=O)[C@@H](Cc2ccc(O)cc2)NCCOc2ccccc2CCCNC(=O)[C@H](CN)NC1=O` returned a Ki at Motilin receptor [1] of 171 nM. `CC(C)[C@H]1NC(=O)[C@@H](Cc2cccc(C(F)(F)F)c2)NCCOc2ccccc2CCCNC(=O)[C@H](CN2CCCC2)NC1=O`: on Motilin receptor [2], the half-maximal inhibitory concentration (IC50) was found to be 2 nM. This compound had a Ki at Motilin receptor [1] of 4.6 nM.

On to `CC(C)[C@H]1NC(=O)[C@@H](Cc2cccc(Cl)c2)NCCOc2ccccc2CCCNC(=O)[C@H](Cn2ccnc2)NC1=O`, for which, at Motilin receptor [1], the Ki was determined as 62 nM. On to `CC(C)[C@H]1NC(=O)[C@@H](Cc2cccc(Cl)c2)NCCOc2ccccc2CCCNC(=O)[C@H](CN)NC1=O`, for which the Ki on Motilin receptor [1] is 64 nM. Same read-out and setting: to `CC(C)[C@H]1NC(=O)[C@@H](Cc2cccc(Cl)c2)NCCOc2ccccc2CCCNC(=O)[C@H](CNc2nccs2)NC1=O` belongs 41 nM. `CC(C)[C@H]1NC(=O)[C@@H](Cc2cccc(C(F)(F)F)c2)NCCOc2ccccc2CCCNC(=O)[C@H](CNC(=N)N)NC1=O`: on Motilin receptor [2], the IC50 was 28 nM. The same compound registered a Ki on Motilin receptor [1] of 6 nM. As to `CC(C)[C@H]1NC(=O)[C@@H](Cc2cccc(Cl)c2)NCCOc2ccccc2CCCNC(=O)[C@H](CN(C)C)NC1=O`, the IC50 on Motilin receptor [2] amounted to 95 nM. Besides, at Motilin receptor [1], affinity was put at a Ki of 27 nM.

Regarding `CC(C)[C@H]1NC(=O)[C@@H](Cc2cccc(Cl)c2)NCCOc2ccccc2CCCNC(=O)[C@H](CN=C2NCCN2)NC1=O`, at Motilin receptor [1], the affinity, expressed as Ki, was 51 nM. Compound `Cc1nnn(C[C@@H]2NC(=O)[C@@H](C(C)C)NC(=O)[C@@H](Cc3cccc(C(F)(F)F)c3)NCCOc3ccccc3CCCNC2=O)c1C` came in with a Ki at Motilin receptor [1] of 23 nM. Against the preceding compound, the Ki is about 2.2-fold lower. Same read-out and setting: to `CC(C)[C@H]1NC(=O)[C@@H](Cc2cccc(Cl)c2)NCCOc2ccccc2CCCNC(=O)[C@H](CN/C(N)=N/C#N)NC1=O` belongs 100 nM; to `CC(C)[C@H]1NC(=O)[C@@H](Cc2cccc(Cl)c2)NCCOc2ccccc2CCCNC(=O)[C@H](CCN=C(N)N)NC1=O`, 33 nM.
